Reference: patent US20250136584A1, “Benzimidazole Or Azabenzimidazole Compound, Preparation Method Therefor And Use Thereof” (Chengdu Di'Ao Jiuhong Pharmaceutical Factory, priority 2022, published 2025)

Tests used:
GLP1R = GLP1R (Homo sapiens, UniProt P43220); assay: Agonist activity on GLP1R/CRE-LUC HEK293 cells (luciferase reporter, ONE-Glo); type: cell-based; conditions: for EC50: GLP1R/CRE-LUC HEK293 cells, 6 hours incubation, chemiluminescence signal; for activity compared with comparative example compounds PF-06882961, DB02, DB03 and DB06: from Table 1, also much higher than DB04 and DB05
Chain of GLP1R (P43220 24-463): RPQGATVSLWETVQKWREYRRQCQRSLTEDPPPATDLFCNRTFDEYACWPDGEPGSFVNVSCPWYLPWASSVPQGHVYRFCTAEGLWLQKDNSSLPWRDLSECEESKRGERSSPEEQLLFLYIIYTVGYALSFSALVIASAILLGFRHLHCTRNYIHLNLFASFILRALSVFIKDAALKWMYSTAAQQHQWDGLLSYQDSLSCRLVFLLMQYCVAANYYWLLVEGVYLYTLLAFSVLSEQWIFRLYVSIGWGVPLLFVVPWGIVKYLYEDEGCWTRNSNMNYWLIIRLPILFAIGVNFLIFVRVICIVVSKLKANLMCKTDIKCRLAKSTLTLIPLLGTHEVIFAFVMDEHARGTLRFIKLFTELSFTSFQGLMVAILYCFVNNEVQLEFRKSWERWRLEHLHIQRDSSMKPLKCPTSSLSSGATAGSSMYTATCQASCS
Experimental: Logarithmically growing GLP1R/CRE-LUC HEK293 cells (purchased from Nanjing Cobioer) were digested, the digested cells were re-suspended in a DMEM+10% FBS culture medium, and a cell density was adjusted to be 3.5*10^5/mL. The cell solution was added into a 96-well cell culture plate by 100 µL/well, and the plate was cultured overnight in an incubator (37° C., 5% CO2).
A compound was dissolved with DMSO to prepare a storage solution at an initial concentration of 10 mM, an initial concentration of the small molecular compound was 0.2 mM, and the compound was diluted by 3 times and 10 points were diluted, while the 11th point was DMSO. Another 96-well plate was taken, added with 95 μL of cell culture solution (DMEM+10% FBS) in each well, then added with 5 μL of to-be-tested samples at different concentrations in each well, mixed evenly, and then added with 11 μL of to-be-tested samples at different concentrations in each well of the cell culture plate, and each sample had two wells. The culture plate was incubated in an incubator for 6 hours (37° C., […]). The 96-well cell culture plate was taken out, added with 100 μL of ONE-Glo™ reagent in each well, and incubated at room temperature for 10 minutes, and a chemiluminescence signal value was measured with an enzyme-labeled instrument. Data were processed and analyzed by Microsoft Excel and Graphpad Prism6 to obtain an EC50 value of the compound.

hGLP1R mice = assay: Glucose tolerance test in hGLP1R mice after single oral administration; type: in vivo; conditions: 1 mg/kg oral once; for blood glucose reduction effect compared with PF-06882961: glucose 2 g/kg i.p. 60 minutes later; for blood glucose reduction effect compared with PF-06882961 / blood glucose reduction effect compared with comparative example compound DB05: blood glucose curves and AUC (0 to 120 minutes); for onset of blood glucose reduction compared with comparative example compound DB05 / blood glucose reduction effect compared with comparative example compound DB05: FIG. 1 and FIG. 2
Experimental: Genetically engineered hGLP1R mice, male, purchased from Biocytogen Jiangsu Gene Biotechnology Co., Ltd., were fasted overnight before the glucose tolerance test (IPTGG), without water deprivation. A solvent or corresponding compound was orally administered once, a glucose solution (2 g/kg) was intraperitoneally injected 60 minutes after administration, and a blood glucose value before administration of glucose (equivalent to a blood glucose value of 0 minute) and blood glucose values 15 minutes, 30 minutes, 60 minutes and 120 minutes after administration of glucose were measured. The solvent was 5% DMSO+40% PEG400+55% physiological saline, and a dosage of the compound was 1 mg/kg (n=3).

hERG potassium channel = molecular target: T1, hERG potassium channel (Homo sapiens, UniProt Q12809); assay: hERG test, patch clamp on HEK-293 cells stably expressing hERG potassium channel; type: cell-based; conditions: HEK-293 cell line stably expressing hERG, read-out: IC50 (μM) of inhibitory effect on hERG potassium channel current
T1 construct: host or cells: HEK-293 stably expressing hERG
T1 sequence (Q12809 whole entry): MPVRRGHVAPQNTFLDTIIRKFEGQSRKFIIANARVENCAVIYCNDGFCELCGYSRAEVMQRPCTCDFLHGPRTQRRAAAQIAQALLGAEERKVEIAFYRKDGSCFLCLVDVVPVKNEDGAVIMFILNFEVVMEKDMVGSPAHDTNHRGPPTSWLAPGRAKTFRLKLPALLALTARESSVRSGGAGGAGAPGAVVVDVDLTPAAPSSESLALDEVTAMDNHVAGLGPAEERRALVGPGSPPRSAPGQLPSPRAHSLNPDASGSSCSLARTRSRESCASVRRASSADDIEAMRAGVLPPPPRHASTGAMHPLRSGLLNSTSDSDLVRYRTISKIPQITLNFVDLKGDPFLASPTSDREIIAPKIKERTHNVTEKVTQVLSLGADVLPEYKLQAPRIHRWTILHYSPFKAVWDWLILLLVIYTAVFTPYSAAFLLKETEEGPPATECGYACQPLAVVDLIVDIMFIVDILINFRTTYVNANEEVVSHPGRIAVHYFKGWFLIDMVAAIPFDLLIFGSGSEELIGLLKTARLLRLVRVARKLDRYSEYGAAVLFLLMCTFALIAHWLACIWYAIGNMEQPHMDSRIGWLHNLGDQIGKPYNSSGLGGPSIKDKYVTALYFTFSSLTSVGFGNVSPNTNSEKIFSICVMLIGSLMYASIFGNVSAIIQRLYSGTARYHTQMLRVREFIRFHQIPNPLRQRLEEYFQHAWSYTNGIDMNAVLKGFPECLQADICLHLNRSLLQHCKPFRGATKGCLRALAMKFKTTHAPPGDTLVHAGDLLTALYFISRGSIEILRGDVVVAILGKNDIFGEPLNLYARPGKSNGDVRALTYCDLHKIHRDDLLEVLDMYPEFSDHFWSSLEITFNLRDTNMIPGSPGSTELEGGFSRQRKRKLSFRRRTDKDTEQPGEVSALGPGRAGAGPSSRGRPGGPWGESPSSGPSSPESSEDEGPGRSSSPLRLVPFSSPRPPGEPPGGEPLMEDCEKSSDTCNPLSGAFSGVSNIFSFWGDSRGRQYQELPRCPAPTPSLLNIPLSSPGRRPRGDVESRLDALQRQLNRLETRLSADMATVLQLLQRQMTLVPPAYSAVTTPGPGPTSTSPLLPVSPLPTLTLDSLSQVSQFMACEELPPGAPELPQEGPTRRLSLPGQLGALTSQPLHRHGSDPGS
Experimental: Test object: influences of compounds on an hERG potassium channel current were tested by a full-automatic patch clamp method.
• (1) An HEK-293 cell line stably expressing an hERG potassium channel was adopted, and hERG potassium channel cells were purchased from Creacell Company. • (2) The HEK-293 cell line stably expressing the hERG potassium channel was cultured in a DMEM culture medium containing 10% fetal bovine serum and 0.8 mg/mL G418 at 37° C. under a carbon dioxide concentration of 5%. • (3) Cell passage: the old culture medium was removed, and the cells were washed once with PBS, then added with 1 mL of TrypLE™ Express solution, and incubated at 37° C. for about 0.5 minutes. When the cells were separated from a dish bottom, about 5 mL of complete culture medium preheated at 37° C. was added. A cell suspension was gently blown with a straw to separate the aggregated cells. The cell suspension was transferred to a sterile centrifuge tube and centrifuged at 1000 rpm for 5 minutes to collect the cells. In amplification or maintenance of culture, the cells were inoculated into a 6 cm cell culture dish, and the number of cells inoculated into each cell culture dish was 2.5×10^5 cells (final volume: 5 mL). In order to maintain an electrophysiological activity of cells, a cell density should not exceed 80%. • (4) In patch clamp detection, before the test, the cells were separated by TrypLE™ Express, and 4×10^3 cells were spread on a cover slip and cultured in a 24-well plate (final volume: 500 μL). After 18 hours, the test was carried out for detection. Data analysis:
A current after an effect of each drug concentration and a blank control current
were standardized first, and then an inhibition rate
corresponding to each drug concentration was calculated. A mean number and a standard error were calculated for each concentration, and a semi-inhibitory concentration of each compound was calculated by the following equation: […]
A dosage-dependent effect was nonlinearly fitted by the above equation, wherein C represented a concentration of a test sample, IC50 represented a semi-inhibitory concentration, and h represented a Hill coefficient. Curve fitting and IC50 calculation were completed by IGOR software.

SMILES	EC50 (GLP1R)	activity compared with comparative example compounds PF-06882961, DB02, DB03 and DB06 (GLP1R)	further results
O=C(O)c1ccc2nc(Cc3ccc(-c4ccc(F)c(OCc5ccc(F)c6ccoc56)n4)cc3F)n(C[C@@H]3CCO3)c2c1 [Compound 103]	1.17 nM	higher	–
COCCn1c(Cc2ccc(-c3cccc(OCc4ccc(Cl)c5ccoc45)n3)cc2F)nc2ccc(C(=O)O)cc21 [DB05, reference compound]	312 nM	–	–
O=C(O)c1ccc2nc(CC3CC=C(c4ccc(F)c(OCc5ccc(Cl)c6cc(Cl)oc56)n4)CC3)n(C[C@@H]3CCO3)c2c1 (stereo partly shown) [Compound 107]	1.9 nM	higher	blood glucose reduction effect compared with PF-06882961 (hGLP1R mice): significantly better
O=C(O)c1ccc2nc(Cc3ccc(-c4cccc(OCc5ccc(Cl)c6ccoc56)n4)cc3F)n(C[C@@H]3CCO3)c2n1 [Compound 38]	7.53 nM	higher	onset of blood glucose reduction compared with comparative example compound DB05 (hGLP1R mice): took effect more quickly; blood glucose reduction effect compared with PF-06882961 (hGLP1R mice): significantly better; blood glucose reduction effect compared with comparative example compound DB05 (hGLP1R mice): significantly better
N#Cc1ccc(COc2cccc(-c3ccc(Cc4nc5ccc(C(=O)O)nc5n4C[C@@H]4CCO4)c(F)c3)n2)c2occc12 [Compound 67]	1.97 nM	higher	–
O=C(O)c1ccc2nc(CC3CCN(c4cccc(OCc5ccc(Cl)c6ccoc56)n4)CC3)n(C[C@@H]3CCO3)c2c1 [Compound 1]	114 nM	–	–
N#Cc1ccc(COc2cccc(N3CCC(Cc4nc5ccc(C(=O)O)cc5n4C[C@@H]4CCO4)CC3)n2)c2occc12 [Compound 3]	65.1 nM	–	–
O=C(O)c1ccc2nc(CC3CC=C(c4ccc(F)c(OCc5ccc(Cl)c6ccoc56)n4)CC3)n(C[C@@H]3CCO3)c2c1 (stereo partly shown) [Compound 106]	5.87 nM	higher	blood glucose reduction effect compared with PF-06882961 (hGLP1R mice): significantly better
N#Cc1ccc(COc2cccc(-c3ccc(Cc4nc5ccc(C(=O)O)cc5n4C[C@@H]4CCO4)c(F)c3)n2)c2occc12 [Compound 19]	3.2 nM	higher	onset of blood glucose reduction compared with comparative example compound DB05 (hGLP1R mice): took effect more quickly; blood glucose reduction effect compared with PF-06882961 (hGLP1R mice): significantly better; blood glucose reduction effect compared with comparative example compound DB05 (hGLP1R mice): significantly better
O=C(O)c1cc(F)c2nc(Cc3ccc(-c4cccc(OCc5ccc(Cl)c6ccoc56)n4)cc3F)n(C[C@@H]3CCO3)c2c1 [Compound 105]	1.09 nM	higher	–
O=C(O)c1ccc2nc(CC3CC=C(c4cccc(OCc5cccc6c5oc5ccccc56)n4)CC3)n(C[C@@H]3CCO3)c2c1 (stereo partly shown) [Compound 15]	25.8 nM	–	–
O=C(O)c1ccc2nc(Cc3c(F)cc(-c4cccc(OCc5ccc(Cl)c6ccoc56)n4)cc3F)n(C[C@@H]3CCO3)c2c1 [Compound 101]	0.69 nM	higher	–
O=C(O)c1ccc2nc(CN3CC=C(c4cccc(OCc5cccc6c5oc5ccccc56)n4)CC3)n(C[C@@H]3CCO3)c2n1 [Compound 14]	6.76 nM	higher	–
O=C(O)c1ccc2nc(CN3CC=C(c4cccc(OCc5cccc6c5oc5ccccc56)n4)CC3)n(C[C@@H]3CCO3)c2c1 [Compound 13]	13.6 nM	higher	–
O=C(O)c1ccc2nc(Cc3ccc(-c4ccc(F)c(OCc5cccc6c5oc5ccccc56)n4)cc3F)n(C[C@@H]3CCO3)c2c1 [Compound 97]	7.57 nM	higher	–
O=C(O)c1ccc2nc(CC3=CCN(c4cccc(OCc5ccc(Cl)c6ccoc56)n4)CC3)n(C[C@@H]3CCO3)c2c1 [Compound 2]	101 nM	–	–
O=C(O)c1ccc2nc(Cc3ccc(-c4nc(OCc5ccc(Cl)c6ccoc56)c(F)cc4F)cc3F)n(C[C@@H]3CCO3)c2c1 [Compound 96]	3.02 nM	higher	–
COCCn1c(Cc2ccc(-c3cccc(OCc4ccc(C#N)c5ccoc45)n3)cc2F)nc2ccc(C(=O)O)cc21 [DB04, reference compound]	275 nM	–	–
O=C(O)c1ccc2nc(CN3CC=C(c4cccc(OCc5ccc(Cl)c6ccoc56)n4)CC3)n(C[C@@H]3CCO3)c2c1 [DB02, reference compound]	13.6 nM	–	–
O=C(O)c1ccc2nc(Cc3ccc(-c4cccc(OCc5cccc6c5oc5ccccc56)n4)cc3F)n(C[C@@H]3CCO3)c2c1 [Compound 61]	–	–	onset of blood glucose reduction compared with comparative example compound DB05 (hGLP1R mice): took effect more quickly; blood glucose reduction effect compared with PF-06882961 (hGLP1R mice): significantly better; blood glucose reduction effect compared with comparative example compound DB05 (hGLP1R mice): significantly better
O=C(O)c1ccc2nc(Cc3cc(F)c(-c4cccc(OCc5ccc(Cl)c6ccoc56)n4)cc3F)n(C[C@@H]3CCO3)c2c1 [Compound 25]	11.5 nM	higher	–
Cc1cc2c(Cl)ccc(COc3cccc(-c4ccc(Cc5nc6ccc(C(=O)O)cc6n5C[C@@H]5CCO5)c(F)c4)n3)c2o1 [Compound 102]	9.1 nM	higher	–
O=C(O)c1ccc2nc(Cc3ccc(-c4cccc(OCc5ccc(Cl)c6ccoc56)n4)cc3F)n(C[C@@H]3CCO3)c2c1F [Compound 91]	0.76 nM	higher	–
O=C(O)c1ccc2nc(Cc3ccc(-c4cccc(OCc5ccc(Cl)c6cc(F)oc56)n4)cc3F)n(C[C@@H]3CCO3)c2c1F [Compound 92]	1.76 nM	higher	–
O=C(O)c1ccc2nc(Cc3ccc(-c4cccc(OCc5ccc(F)c6ccoc56)n4)cc3F)n(C[C@@H]3CCO3)c2c1 [Compound 87]	–	–	IC50 (hERG potassium channel): > 30 µM
O=C(O)c1ccc2nc(Cc3ccc(-c4nc(OCc5ccc(Cl)c6ccoc56)ccc4F)cc3F)n(C[C@@H]3CCO3)c2c1 [Compound 95]	2.33 nM	higher	–
O=C(O)c1ccc2nc(CC3CC=C(c4cccc(OCc5ccc(Cl)c6cc(Cl)oc56)n4)CC3)n(C[C@@H]3CCO3)c2c1 (stereo partly shown) [Compound 108]	3.11 nM	higher	–
